Experimental data: patent EP3760204A1, “MEDICAMENT FOR PREVENTION OR TREATMENT OF HUNTINGTON'S DISEASE” (Medizinische Universität Graz, priority 2019, dated 2021)

Columns and labels:
HepG2 cells [1] = assay: pGFP-RFP-LC3 autophagic flux assay in transfected HepG2 cells; conditions: fed condition, 50µM, Figures 3C, 6C
TFEB = assay: LC3 II induction after TFEB knockdown (siTFEB) in HepG2 cells; format: cell-based, human; conditions: 50µM, +/- chloroquine, Figure 9
Description: (§1) Western blot: Protein lysate was generated by homogenization (Magnalyzer, Roche) of tissue or cell pellet in homogenization buffer with protease and phosphatase inhibitors (Halt tablets, Invitrogen). After homogenization, lysates were sonicated 2x for 10" each. Lysates were then centrifuged for 10 min at 4°C and the supernatant was subjected to BCA protein estimation (Thermo Fisher). Equal amounts of lysate were loaded to self-made acrylamide gels. After separation, the protein was transferred to a PVDF membrane with semi-dry transfer.

alpha-1-antitrypsin = assay: Pathological alpha-1-antitrypsin (Z-allele) accumulation in transfected HeLa cells; format: cell-based, human; conditions: HeLa cells transfected with PXR/RXR and Z-allele of alpha-1-antitrypsin, 50µM, 24h; Figure 10
Description: as §1

HepG2 cells [2] = assay: Autophagic flux assay (LC3 II Western blot, with or without chloroquine) in HepG2 cells; format: cell-based, human; conditions: 50µM hyperforin vs ethanol vehicle, Figure 6A
Description: as §1

## hyperforin
HepG2 cells [1]
  autophagic flux (GFP-RFP-LC3 dots): induced autophagic flux
TFEB; non-targeting control (NT) HepG2 cells
  LC3 II in the presence of TFEB: induces
TFEB; siTFEB HepG2 cells
  LC3 II induction in siTFEB cells: blunted
alpha-1-antitrypsin
  pathological A1AT accumulation: robustly decreases
HepG2 cells [2]
  LC3 II protein: induces
